Measured values published in ChEMBL document CHEMBL3045546, “Synthesis and antimicrobial screening of 4-thiazolidinone and 2-azetidinone derivatives of piperazine” (2013).
In brackets after ≈: the same amount, converted by molar mass.

Key:
Format in all cases: functional
[1] = tested on: Aspergillus flavus; assay: Antimicrobial activity against Aspergillus flavus ATCC 15517 assessed as growth inhibition by broth dilution method
[2] = tested on: Staphylococcus epidermidis; assay: Antimicrobial activity against Staphylococcus epidermidis ATCC 12228 assessed as growth inhibition by broth dilution method
[3] = tested on: Candida albicans; assay: Antimicrobial activity against Candida albicans ATCC 10231 assessed as growth inhibition by broth dilution method
[4] = tested on: Aspergillus awamori; assay: Antimicrobial activity against Aspergillus awamori ATCC 22342 assessed as growth inhibition by broth dilution method
[5] = tested on: Aspergillus niger; assay: Antimicrobial activity against Aspergillus niger ATCC 9142 assessed as growth inhibition by broth dilution method
[6] = tested on: Trichoderma viride; assay: Antimicrobial activity against Hypocrea rufa ATCC 52440 assessed as growth inhibition by broth dilution method
[7] = tested on: Bacillus pumilus; assay: Antimicrobial activity against Bacillus pumilus ATCC 14884 assessed as growth inhibition by broth dilution method
[8] = tested on: Proteus vulgaris; assay: Antimicrobial activity against Proteus vulgaris ATCC 13315 assessed as growth inhibition by broth dilution method
[9] = tested on: Bacillus subtilis; assay: Antimicrobial activity against Bacillus subtilis ATCC 6633 assessed as growth inhibition by broth dilution method
[10] = tested on: Alternaria alternata; assay: Antimicrobial activity against Alternaria alternata ATCC 66868 assessed as growth inhibition by broth dilution method
[11] = tested on: Klebsiella pneumoniae; assay: Antimicrobial activity against Klebsiella pneumoniae ATCC 13883 assessed as growth inhibition by broth dilution method
[12] = tested on: Staphylococcus hominis; assay: Antimicrobial activity against Staphylococcus hominis ATCC 27844 assessed as growth inhibition by broth dilution method
[13] = tested on: Micrococcus luteus; assay: Antimicrobial activity against Micrococcus luteus ATCC 4698 assessed as growth inhibition by broth dilution method
[14] = tested on: Rhizoctonia solani; assay: Antimicrobial activity against Rhizoctonia solani ATCC 76131 assessed as growth inhibition by broth dilution method
[15] = tested on: Pseudomonas aeruginosa; assay: Antimicrobial activity against Pseudomonas aeruginosa ATCC 10145 assessed as growth inhibition by broth dilution method
[16] = tested on: Trichophyton longifusum; assay: Antimicrobial activity against Trichophyton longifusum ATCC 22397 assessed as growth inhibition by broth dilution method
[17] = tested on: Salmonella typhi; assay: Antimicrobial activity against Salmonella enterica subsp. enterica serovar Typhi ATCC 19430 assessed as growth inhibition by broth dilution method
[18] = tested on: Proteus mirabilis; assay: Antimicrobial activity against Proteus mirabilis ATCC 49565 assessed as growth inhibition by broth dilution method
[19] = tested on: Bacillus cereus; assay: Antimicrobial activity against Bacillus cereus ATCC 11778 assessed as growth inhibition by broth dilution method
[20] = tested on: Staphylococcus aureus; assay: Antimicrobial activity against Staphylococcus aureus ATCC 25923 assessed as growth inhibition by broth dilution method
[21] = tested on: Aspergillus fumigatus; assay: Antimicrobial activity against Aspergillus fumigatus assessed as growth inhibition by broth dilution method
[22] = tested on: Microsporum canis; assay: Antimicrobial activity against Arthroderma otae ATCC 11622 assessed as growth inhibition by broth dilution method
[23] = tested on: Escherichia coli; assay: Antimicrobial activity against Escherichia coli ATCC 25922 assessed as growth inhibition by broth dilution method
[24] = tested on: Fusarium solani; assay: Antimicrobial activity against Fusarium solani ATCC 38136 assessed as growth inhibition by broth dilution method

O=C(CCl)N1CCN(CCN2C(=O)C(Cl)C2c2ccco2)CC1 (centres undefined)
MIC [1]: 300 µg/mL (≈ 833 µM) | MIC [2]: 75 µg/mL (≈ 208 µM) | MIC [3]: 300 µg/mL (≈ 833 µM) | MIC [4]: 150 µg/mL (≈ 416 µM) | MIC [5]: 150 µg/mL (≈ 416 µM) | MIC [6]: 300 µg/mL (≈ 833 µM) | MIC [7]: 75 µg/mL (≈ 208 µM) | MIC [8]: 75 µg/mL (≈ 208 µM) | MIC [9]: 150 µg/mL (≈ 416 µM) | MIC [10]: 150 µg/mL (≈ 416 µM) | MIC [11]: 75 µg/mL (≈ 208 µM) | MIC [12]: 75 µg/mL (≈ 208 µM) | MIC [13]: 150 µg/mL (≈ 416 µM) | MIC [14]: 300 µg/mL (≈ 833 µM) | MIC [15]: 150 µg/mL (≈ 416 µM) | MIC [16]: 300 µg/mL (≈ 833 µM) | MIC [17]: 150 µg/mL (≈ 416 µM) | MIC [18]: 150 µg/mL (≈ 416 µM) | MIC [19]: 75 µg/mL (≈ 208 µM) | MIC [20]: 150 µg/mL (≈ 416 µM) | MIC [21]: 300 µg/mL (≈ 833 µM) | MIC [22]: 150 µg/mL (≈ 416 µM) | MIC [23]: 75 µg/mL (≈ 208 µM) | MIC [24]: 150 µg/mL (≈ 416 µM)

COc1cc(C2SCC(=O)N2CCN2CCNCC2)ccc1O (centres undefined)
MIC [1]: 18.8 µg/mL (≈ 55.6 µM) | MIC [2]: 9.37 µg/mL (≈ 27.8 µM) | MIC [3]: 18.8 µg/mL (≈ 55.6 µM) | MIC [4]: 9.73 µg/mL (≈ 28.8 µM) | MIC [5]: 9.73 µg/mL (≈ 28.8 µM) | MIC [6]: 18.8 µg/mL (≈ 55.6 µM) | MIC [7]: 9.37 µg/mL (≈ 27.8 µM) | MIC [8]: 9.37 µg/mL (≈ 27.8 µM) | MIC [9]: 9.37 µg/mL (≈ 27.8 µM) | MIC [10]: 9.73 µg/mL (≈ 28.8 µM) | MIC [11]: 9.37 µg/mL (≈ 27.8 µM) | MIC [12]: 9.37 µg/mL (≈ 27.8 µM) | MIC [13]: 4.68 µg/mL (≈ 13.9 µM) | MIC [14]: 18.8 µg/mL (≈ 55.6 µM) | MIC [15]: 9.37 µg/mL (≈ 27.8 µM) | MIC [16]: 9.73 µg/mL (≈ 28.8 µM) | MIC [17]: 9.37 µg/mL (≈ 27.8 µM) | MIC [18]: 9.37 µg/mL (≈ 27.8 µM) | MIC [19]: 9.37 µg/mL (≈ 27.8 µM) | MIC [20]: 9.37 µg/mL (≈ 27.8 µM) | MIC [21]: 18.8 µg/mL (≈ 55.6 µM) | MIC [22]: 18.8 µg/mL (≈ 55.6 µM) | MIC [23]: 9.37 µg/mL (≈ 27.8 µM) | MIC [24]: 9.73 µg/mL (≈ 28.8 µM)

O=C1CSC(c2ccco2)N1CCN1CCNCC1 (centres undefined)
MIC [1]: 150 µg/mL (≈ 533 µM) | MIC [2]: 300 µg/mL (≈ 1070 µM) | MIC [3]: 300 µg/mL (≈ 1070 µM) | MIC [4]: 150 µg/mL (≈ 533 µM) | MIC [5]: 300 µg/mL (≈ 1070 µM) | MIC [6]: 150 µg/mL (≈ 533 µM) | MIC [7]: 150 µg/mL (≈ 533 µM) | MIC [8]: 150 µg/mL (≈ 533 µM) | MIC [9]: 75 µg/mL (≈ 267 µM) | MIC [10]: 300 µg/mL (≈ 1070 µM) | MIC [11]: 150 µg/mL (≈ 533 µM) | MIC [12]: 75 µg/mL (≈ 267 µM) | MIC [13]: 75 µg/mL (≈ 267 µM) | MIC [14]: 150 µg/mL (≈ 533 µM) | MIC [15]: 75 µg/mL (≈ 267 µM) | MIC [16]: 300 µg/mL (≈ 1070 µM) | MIC [17]: 75 µg/mL (≈ 267 µM) | MIC [18]: 150 µg/mL (≈ 533 µM) | MIC [19]: 150 µg/mL (≈ 533 µM) | MIC [20]: 150 µg/mL (≈ 533 µM) | MIC [21]: 150 µg/mL (≈ 533 µM) | MIC [22]: 300 µg/mL (≈ 1070 µM) | MIC [23]: 75 µg/mL (≈ 267 µM) | MIC [24]: 300 µg/mL (≈ 1070 µM)

O=C(CCl)N1CCN(CCN2C(=O)C(Cl)C2c2cccc(O)c2)CC1 (centres undefined)
MIC [1]: 75 µg/mL (≈ 194 µM) | MIC [2]: 18.8 µg/mL (≈ 48.5 µM) | MIC [3]: 37.5 µg/mL (≈ 97.1 µM) | MIC [4]: 75 µg/mL (≈ 194 µM) | MIC [5]: 37.5 µg/mL (≈ 97.1 µM) | MIC [6]: 37.5 µg/mL (≈ 97.1 µM) | MIC [7]: 37.5 µg/mL (≈ 97.1 µM) | MIC [8]: 18.8 µg/mL (≈ 48.5 µM) | MIC [9]: 18.8 µg/mL (≈ 48.5 µM) | MIC [10]: 37.5 µg/mL (≈ 97.1 µM) | MIC [11]: 37.5 µg/mL (≈ 97.1 µM) | MIC [12]: 37.5 µg/mL (≈ 97.1 µM) | MIC [13]: 18.8 µg/mL (≈ 48.5 µM) | MIC [14]: 37.5 µg/mL (≈ 97.1 µM) | MIC [15]: 37.5 µg/mL (≈ 97.1 µM) | MIC [16]: 75 µg/mL (≈ 194 µM) | MIC [17]: 37.5 µg/mL (≈ 97.1 µM) | MIC [18]: 37.5 µg/mL (≈ 97.1 µM) | MIC [19]: 37.5 µg/mL (≈ 97.1 µM) | MIC [20]: 37.5 µg/mL (≈ 97.1 µM) | MIC [21]: 75 µg/mL (≈ 194 µM) | MIC [22]: 75 µg/mL (≈ 194 µM) | MIC [23]: 18.8 µg/mL (≈ 48.5 µM) | MIC [24]: 37.5 µg/mL (≈ 97.1 µM)

COc1ccc(C2SCC(=O)N2CCN2CCNCC2)cc1O (centres undefined)
MIC [1]: 9.37 µg/mL (≈ 27.8 µM) | MIC [2]: 9.37 µg/mL (≈ 27.8 µM) | MIC [3]: 9.37 µg/mL (≈ 27.8 µM) | MIC [4]: 9.37 µg/mL (≈ 27.8 µM) | MIC [5]: 18.8 µg/mL (≈ 55.6 µM) | MIC [6]: 18.8 µg/mL (≈ 55.6 µM) | MIC [7]: 9.37 µg/mL (≈ 27.8 µM) | MIC [8]: 9.37 µg/mL (≈ 27.8 µM) | MIC [9]: 9.37 µg/mL (≈ 27.8 µM) | MIC [10]: 18.8 µg/mL (≈ 55.6 µM) | MIC [11]: 4.68 µg/mL (≈ 13.9 µM) | MIC [12]: 9.37 µg/mL (≈ 27.8 µM) | MIC [13]: 9.37 µg/mL (≈ 27.8 µM) | MIC [14]: 9.37 µg/mL (≈ 27.8 µM) | MIC [15]: 9.37 µg/mL (≈ 27.8 µM) | MIC [16]: 18.8 µg/mL (≈ 55.6 µM) | MIC [17]: 9.37 µg/mL (≈ 27.8 µM) | MIC [18]: 9.37 µg/mL (≈ 27.8 µM) | MIC [19]: 4.68 µg/mL (≈ 13.9 µM) | MIC [20]: 9.37 µg/mL (≈ 27.8 µM) | MIC [21]: 9.37 µg/mL (≈ 27.8 µM) | MIC [22]: 9.37 µg/mL (≈ 27.8 µM) | MIC [23]: 9.37 µg/mL (≈ 27.8 µM) | MIC [24]: 18.8 µg/mL (≈ 55.6 µM)

O=C1CSC(c2ccc(O)cc2)N1CCN1CCNCC1 (centres undefined)
MIC [1]: 18.8 µg/mL (≈ 61 µM) | MIC [2]: 9.37 µg/mL (≈ 30.5 µM) | MIC [3]: 9.73 µg/mL (≈ 31.7 µM) | MIC [4]: 18.8 µg/mL (≈ 61 µM) | MIC [5]: 18.8 µg/mL (≈ 61 µM) | MIC [6]: 18.8 µg/mL (≈ 61 µM) | MIC [7]: 9.37 µg/mL (≈ 30.5 µM) | MIC [8]: 4.68 µg/mL (≈ 15.2 µM) | MIC [9]: 4.68 µg/mL (≈ 15.2 µM) | MIC [10]: 18.8 µg/mL (≈ 61 µM) | MIC [11]: 9.37 µg/mL (≈ 30.5 µM) | MIC [12]: 9.37 µg/mL (≈ 30.5 µM) | MIC [13]: 9.37 µg/mL (≈ 30.5 µM) | MIC [14]: 18.8 µg/mL (≈ 61 µM) | MIC [15]: 9.37 µg/mL (≈ 30.5 µM) | MIC [16]: 9.73 µg/mL (≈ 31.7 µM) | MIC [17]: 9.37 µg/mL (≈ 30.5 µM) | MIC [18]: 9.37 µg/mL (≈ 30.5 µM) | MIC [19]: 9.37 µg/mL (≈ 30.5 µM) | MIC [20]: 9.37 µg/mL (≈ 30.5 µM) | MIC [21]: 9.37 µg/mL (≈ 30.5 µM) | MIC [22]: 18.8 µg/mL (≈ 61 µM) | MIC [23]: 4.68 µg/mL (≈ 15.2 µM) | MIC [24]: 9.73 µg/mL (≈ 31.7 µM)
